Measurements taken from patent US11186576B2, “Pyrazolo[1,5-A][1,3,5]triazine and pyrazolo[1,5-A]pyrimidine derivatives as CDK inhibitors” (Aurigene Discovery Technologies Limited, priority 2015, dated 2021).

Tests used:
[1] = system: RNA polymerase II CTD phosphorylation (MDA-MB-231/NCI-H358 cells); assay: Inhibition of RNA polymerase II CTD phosphorylation in cell western assay; assay type: cell-based; details: 4 hours incubation, phospho RNA Pol II Ser-5 or Ser-2
Description: 25000 cells (MDA-MB-231/NCI-H358) were seeded in 96 well black clear bottom plate incubated for overnight before addition of selected compound. 3 fold dilutions of selected compound diluted in DMSO starting from 10 μM, added to cells and incubated for 4 hours at 37° C., 5% CO2 incubator. Cells were washed once with 100 μl of phosphate buffered saline (sigma #P3813), then fixed with 100 μl/well of 4% Para formaldehyde for 60 min at room temperature, in dark. The cells were washed 3 times with 100 μl of wash buffer (PBS with 0.1% Triton-X-100), later blocked for 2 hours at room temperature in blocking buffer (5% BSA in PBST). Cells were stained overnight at 4° C. with Phospho RNA Pol II (S5) (Millipore #04-1572, Abcam #5131) or Phospho RNA Pol II (Ser-2), antibody (Bethyl labs #A300-654-A) in blocking buffer. Post incubation cells were washed with Delifia wash buffer (Perkin Elmer #4010-0010). Cells were treated with LANCE secondary antibodies (LANCE® Eu-W1024 perkin elmer #AD-0076 for phospho Ser-5 CTD RNA pol-II and Delfia Eu-N1 anti rabbit IgG Perkin elmer #AD0106 for phospho Ser-2 CTD RNA pol-II) for 2 hours in assay buffer (Perkin Elmer #1244-111), Cells were washed 3 times with Delfia wash buffer post incubation, Enhancement solution (Perkin Elmer #1244-105) added and incubated for 20 mins. Europium readings were taken in Victor-3 instrument. Cell normalization was done using Hoechst dye (0.5 μg/ml).
Selected compounds were screened in the above mentioned assay procedure. The EC50 values are summarised in the below table; wherein group “A” refers to an EC50 value of less than or equal to 1 μM, group “B” refers to EC50 value in range of 1 to 10 μM and group “C” refers to EC50 value of greater than 10 μM.

CDK7/CycH/MNAT1 = CDK7/CycH/MNAT1 (Homo sapiens (Human), UniProt P50613); assay: Biochemical assay for CDK7 (TR-FRET kinase assay); details: 60 min pre-incubation, 1 mM ATP; for inhibition at 10 µM: 10 μM compound, read-out: % inhibition @ 10 μM; for IC50: read-out: IC50
Sequence of CDK7/CycH/MNAT1 (P50613 whole entry): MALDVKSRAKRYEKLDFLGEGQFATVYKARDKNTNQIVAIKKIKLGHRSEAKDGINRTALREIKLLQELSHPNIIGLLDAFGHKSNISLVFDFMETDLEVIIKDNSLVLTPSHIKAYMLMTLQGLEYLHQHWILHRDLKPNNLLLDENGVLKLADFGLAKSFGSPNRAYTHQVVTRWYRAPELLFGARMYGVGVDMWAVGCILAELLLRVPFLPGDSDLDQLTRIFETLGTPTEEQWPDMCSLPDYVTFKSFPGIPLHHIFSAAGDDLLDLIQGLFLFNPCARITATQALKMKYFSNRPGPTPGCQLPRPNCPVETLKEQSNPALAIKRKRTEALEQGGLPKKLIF
Sequence of CDK7/CycH/MNAT1 (P51946 whole entry partner): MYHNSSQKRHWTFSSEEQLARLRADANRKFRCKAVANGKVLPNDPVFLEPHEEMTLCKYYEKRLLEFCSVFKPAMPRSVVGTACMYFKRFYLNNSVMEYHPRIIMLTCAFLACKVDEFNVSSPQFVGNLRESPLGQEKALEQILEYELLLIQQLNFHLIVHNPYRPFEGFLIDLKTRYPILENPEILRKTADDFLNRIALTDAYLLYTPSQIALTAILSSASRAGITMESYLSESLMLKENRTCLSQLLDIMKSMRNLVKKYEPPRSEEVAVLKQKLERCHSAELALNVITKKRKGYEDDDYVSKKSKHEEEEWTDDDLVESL
Sequence of CDK7/CycH/MNAT1 (P51948 whole entry partner): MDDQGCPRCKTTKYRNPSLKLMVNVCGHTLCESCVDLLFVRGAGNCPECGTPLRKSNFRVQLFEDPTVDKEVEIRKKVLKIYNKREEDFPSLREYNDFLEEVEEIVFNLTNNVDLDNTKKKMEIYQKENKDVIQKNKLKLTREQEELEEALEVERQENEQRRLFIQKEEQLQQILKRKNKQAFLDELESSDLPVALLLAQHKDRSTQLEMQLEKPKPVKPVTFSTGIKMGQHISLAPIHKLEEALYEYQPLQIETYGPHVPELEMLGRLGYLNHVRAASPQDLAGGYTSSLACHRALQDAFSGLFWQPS
In short: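 CDK7/CycH/MNAT1 (5 nM) was preincubated with compound for 60 min at room temperature, then reacted for 60 min with 100 nM ULight-MBP and 1 mM ATP in 1% DMSO. Irreversibility was probed with 20, 60 and 180 min preincubations.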

EC50 [1]	inhibition at 10 µM (CDK7/CycH/MNAT1)	IC50 (CDK7/CycH/MNAT1)	SMILES
1 to 10 µM	99%	< 0.3 µM	C=CC(=O)N1CCC(C(=O)Nc2cccc(CNc3nc(OC4CCN(C)CC4)nc4c(C(C)C)cnn34)c2)C1 (centres unmarked) [Compound 108, 1-acryloyl-N-(3-(((8-isopropyl-2-((1-methylpiperidin-4-yl)oxy)pyrazolo[1,5-a][1,3,5]triazin-4-yl)amino)methyl)phenyl)pyrrolidine-3-carboxamide]
1 to 10 µM	95%	< 0.3 µM	C=CC(=O)N1CCC(C(=O)Nc2cccc(CNc3nc(OC4CCN(C)CC4)nc4c(C(C)C)cnn34)c2)CC1 [Compound 111, 1-acryloyl-N-(3-(((8-isopropyl-2-((1-methylpiperidin-4-yl)oxy)pyrazolo[1,5-a][1,3,5]triazin-4-yl)amino)methyl)phenyl)piperidine-4-carboxamide]
1 to 10 µM	97%	< 0.3 µM	C=CC(=O)NC1CCCC(C(=O)Nc2cccc(CNc3nc(OC4CCN(C)CC4)nc4c(C(C)C)cnn34)c2)C1 (centres unmarked) [Compound 114, 3-acrylamido-N-(3-(((8-isopropyl-2-((1-methylpiperidin-4-yl)oxy)pyrazolo[1,5-a][1,3,5]triazin-4-yl)amino)methyl)phenyl)cyclohexane-1-carboxamide]
≤ 1 µM	94%	< 0.3 µM	C=CC(=O)N[C@H]1CC[C@@H](C(=O)Nc2cccc(CNc3nc(OC4CCN(C)CC4)nc4c(C(C)C)cnn34)c2)CC1 [Compound 115, (1,4-cis)-4-acrylamido-N-(3-(((8-isopropyl-2-((1-methylpiperidin-4-yl)oxy)pyrazolo[1,5-a][1,3,5]triazin-4-yl)amino)methyl)phenyl)cyclohexane-1-carboxamide]
1 to 10 µM	92%	< 0.3 µM	C=CC(=O)N1CCCC(C(=O)Nc2cccc(CNc3nc(OC4CCN(C)CC4)nc4c(C(C)C)cnn34)c2)C1 (centres unmarked) [Compound 116, 1-acryloyl-N-(3-(((8-isopropyl-2-((1-methylpiperidin-4-yl)oxy)pyrazolo[1,5-a][1,3,5]triazin-4-yl)amino)methyl)phenyl)piperidine-3-carboxamide]
1 to 10 µM	95%	< 0.3 µM	C=CC(=O)N1CCCC(C(=O)Nc2cc(CNc3nc(OC4CCN(C)CC4)nc4c(C(C)C)cnn34)ccc2F)C1 (centres unmarked) [Compound 117, 1-acryloyl-N-(2-fluoro-5-(((8-isopropyl-2-((1-methylpiperidin-4-yl)oxy)pyrazolo[1,5-a][1,3,5]triazin-4-yl)amino)methyl)phenyl)piperidine-3-carboxamide]
> 10 µM	99%	< 0.3 µM	C=CC(=O)N1CCCC(C(=O)Nc2cccc(C(C)Nc3nc(OC4CCN(C)CC4)nc4c(C(C)C)cnn34)c2)C1 (centres unmarked) [Compound 119, 1-acryloyl-N-(3-(1-((8-isopropyl-2-((1-methylpiperidin-4-yl)oxy)pyrazolo[1,5-a][1,3,5]triazin-4-yl)amino)ethyl)phenyl)piperidine-3-carboxamide]
> 10 µM	–	< 0.3 µM	CC(C)c1cnn2c(NCc3cccc(NC(=O)C4CCCN(C(=O)/C=C/CN(C)C)C4)c3)nc(OC3CCN(C)CC3)nc12 (centres unmarked) [Compound 122, (E)-1-(4-(dimethylamino)but-2-enoyl)-N-(3-(((8-isopropyl-2-((1-methyl-piperidin-4-yl)oxy)pyrazolo[1,5-a][1,3,5]triazin-4-yl)amino)methyl)phenyl)-piperidine-3-carboxamide]

SMILES	EC50 [1]	inhibition at 10 µM (CDK7/CycH/MNAT1)	IC50 (CDK7/CycH/MNAT1)
C=CC(=O)N1CCC(C(=O)Nc2cccc(CNc3nc(OCCCCN)nc4c(C(C)C)cnn34)c2)CC1 [Compound 107, 1-acryloyl-N-(3-(((2-(4-aminobutoxy)-8-isopropylpyrazolo[1,5-a][1,3,5]triazin-4-yl)amino)methyl)phenyl)piperidine-4-carboxamide]	1 to 10 µM	95%	< 0.3 µM
